In patent US9416144B2, “Benzoxazine oxazolidinone compound, preparation method and application thereof” (priority 2012, dated 2016):
Values after ≈ are worked out from the molar mass of the structure shown.

Tests used:
[1] = test system: Enterococcus (6 strains); assay: In vitro antibacterial activity, MIC by agar double dilution method; type: cell-based; details: clinical isolates, 35° C. 16 hrs
From the text: (§1) Experimental method: The agar double dilution method (Antimicrob. Agents and Chemother, 40, 1996, 720-726) was used to determine the minimum inhibitory concentration (MIC) of the series of compounds of the invention and the positive control drug linezolid for the test strains. The multipoint inoculation system (Denley A400) was employed to inoculate the bacteria on the agar plate surface with different concentrations of drugs; inoculation amount on each point was about 10^6 CFU/mL. The plates were incubated at 35° C. for 16 hrs before the results were observed. The lowest drug concentration contained in the Petri dish without bacterial growth was used as the minimum inhibitory concentration (MIC value) of the drug fir that strain.
(§2) Test strains: All the test strains were clinically isolated pathogens which were collected from the Nanjing region, and they were re-identified by routine methods before use. 31 strains of the clinically isolated pathogens were chosen, including 6 strains of Enterococcus, 5 Staphylococcus aureus sensitive strains; 5 Staphylococcus epidermidis sensitive strains; 6 Staphylococcus aureus resistant strains; 5 Staphylococcus epidermidis resistant strains; and 4 Streptococcus pneumoniae resistant strains.
(§3) Compounds to be tested were first added 2 ml of DMSO to help them fully dissolved, then added sterile double distilled water to the desired concentration; to all the Petri dish with added drug liquid were added 20 mL MIT medium which was heat-melted to be liquid-like, to make the final drug concentration in the Petri dish to be 64, 32, 16, 8, 4, 2, 1, 0.5, 0.25, 0.125, 0.0625, and 0.031 μg/mL.
(§4) The positive control group was LZ (linezolid, brand name Zyvox, approved by the FDA in 2000 to be firstly sold in the United States, which is the first and also the only one of oxazolidinone antibacterial drugs allowed to enter clinical application).

[2] = test system: Staphylococcus aureus resistant strains (6 strains); assay: as above; type: cell-based; details: clinical isolates
From the text: as §1, §2, §3, §4

[3] = test system: Staphylococcus aureus sensitive strains (5 strains); assay: as above; type: cell-based; details: clinical isolates
From the text: as §1, §2, §3, §4

[4] = test system: Staphylococcus epidermidis resistant strains (5 strains); assay: as above; type: cell-based; details: clinical isolates
From the text: as §1, §2, §3, §4

[5] = test system: Staphylococcus epidermidis sensitive strains (5 strains); assay: as above; type: cell-based; details: clinical isolates
From the text: as §1, §2, §3, §4

[6] = test system: Streptococcus pneumoniae resistant strains (4 strains); assay: as above; type: cell-based; details: clinical isolates
From the text: as §1, §2, §3, §4

MIC [1] | MIC [2] | MIC [3] | MIC [4] | MIC [5] | MIC [6] | melting point | SMILES
4 to 8 µg/mL (≈ 11.9 to 23.7 µM) | 0.5 to 1 µg/mL (≈ 1.48 to 2.96 µM) | 0.25 to 0.5 µg/mL (≈ 0.741 to 1.48 µM) | 0.25 to 1 µg/mL (≈ 0.741 to 2.96 µM) | 0.25 to 0.5 µg/mL (≈ 0.741 to 1.48 µM) | 1 to 2 µg/mL (≈ 2.96 to 5.93 µM) | 238 to 240 °C | Cc1cc(C#N)ncc1-c1ccc2c(c1)OC[C@H]1[C@H](CO)OC(=O)N21 [Compound 21, 5-((3R,3aS)-3-(hydroxylmethyl)-1-oxo-1,3,3a,4-tetrahydrobenzo[b]oxazolo[3,4-d][1,4]oxazin-7-yl)-4-methylpicolinonitrile]
16 µg/mL (≈ 37.9 µM) | 8 µg/mL (≈ 18.9 µM) | 4 to 8 µg/mL (≈ 9.47 to 18.9 µM) | 4 to 8 µg/mL (≈ 9.47 to 18.9 µM) | 4 to 8 µg/mL (≈ 9.47 to 18.9 µM) | 8 to 16 µg/mL (≈ 18.9 to 37.9 µM) | 210 to 212 °C | O=C1O[C@@H](CO)[C@@H]2COc3cc(-c4ccc(N5C[C@@H]6CCCN[C@@H]6C5)nc4)ccc3N12 [Compound 32, (3R,3aS)-7-(6-((4aS,7aS)-hexahydro-1H-pyrrolo[3,4-b]pyridin-6(2H)-yl)pyridin-3-yl)-3-(hydroxylmethyl)-3a,4-dihydrobenzo[b]oxazolo[3,4-d][1,4]oxazin-1(3H)-one]

Continued, compound first:

SMILES | MIC [1] | MIC [2] | MIC [3] | MIC [4] | MIC [5] | MIC [6] | melting point
Cc1cc(N2CCOC2=O)ncc1-c1ccc2c(c1)OC[C@H]1[C@H](CO)OC(=O)N21 [Compound 22, (3R,3aS)-3-(hydroxylmethyl)-7-(4-methyl-6-(2-oxooxazolidin-3-yl)pyridin-3-yl)-3a,4-dihydrobenzo[b]oxazolo[3,4-d][1,4]oxazin-1(3H)-one] | 4 to 16 µg/mL (≈ 10.1 to 40.3 µM) | 0.5 to 1 µg/mL (≈ 1.26 to 2.52 µM) | 0.5 to 1 µg/mL (≈ 1.26 to 2.52 µM) | 1 µg/mL (≈ 2.52 µM) | 0.5 to 1 µg/mL (≈ 1.26 to 2.52 µM) | 2 µg/mL (≈ 5.03 µM) | 245 to 246 °C
CN1CCC[C@H]2CN(c3ccc(-c4ccc5c(c4)OC[C@H]4[C@H](CO)OC(=O)N54)cn3)C[C@H]21 [Compound 23, (3R,3aS)-3-(hydroxylmethyl)-7-(6-((4aS,7aS)-1-methylhexaydro-1H-pyrrolo[3,4-b]pyridin-6(2H)-yl)pyridin-3-yl)-3a,4-dihydrobenzo[b]oxazolo[3,4-d][1,4]oxazin-1(3H)-one] | 16 µg/mL (≈ 36.7 µM) | 8 µg/mL (≈ 18.3 µM) | 8 µg/mL (≈ 18.3 µM) | 8 to 16 µg/mL (≈ 18.3 to 36.7 µM) | 4 to 8 µg/mL (≈ 9.16 to 18.3 µM) | 16 µg/mL (≈ 36.7 µM) | 169 to 171 °C
NCC1CN(c2ccc(-c3ccc4c(c3)OC[C@H]3[C@H](CO)OC(=O)N43)cn2)C(=O)O1 (stereo partly drawn) [Compound 33, (3R,3aS)-7-(6-(5-(aminomethyl)-2-oxooxazolidin-3-yl)pyridin-3-yl)-3-(hydroxylmethyl)-3a,4-dihydrobenzo[b]oxazolo[3,4-d][1,4]oxazin-1(3H)-one] | 1 to 2 µg/mL (≈ 2.42 to 4.85 µM) | 1 to 2 µg/mL (≈ 2.42 to 4.85 µM) | 1 to 2 µg/mL (≈ 2.42 to 4.85 µM) | 2 µg/mL (≈ 4.85 µM) | 0.5 to 1 µg/mL (≈ 1.21 to 2.42 µM) | 2 µg/mL (≈ 4.85 µM) | –
